Key:
[1] = molecular target: glycosyltransferase (PBP 1b) (Escherichia coli, UniProt P02919); experiment: glycosyltransferase assay: displacement of 3H-moenomycin from the glycosyltransferase (PBP 1b)/3H-moenomycin complex; format: binding; settings: displacement of 3H-moenomycin from PBP 1b; read-out: inhibitory constants (IC50 values) in the glycosyltransferase assay
Excerpt: Table 1 summarizes, by way of example, the inhibitory concentrations (IC50) of some compounds of the invention. A special test system was used for finding glycosyltransferase inhibitors that are specific and very effective. This system uses a glycosyltransferase/^3H-moenomycin complex, which is brought into contact with substances that are to be tested. The determination of the GT-inhibitory effect is based on the displacement of radioactively labeled moenomycin A from the glycosyltransferase (PBP 1b)/^3H-moenomycin complex, it being possible to separate the released ^3H-moenomycin, as a soluble compound, from the fixed complex and to measure the remaining radioactivity using a Geiger counter.
The assay was carried out as described by Vollmer & Höltje (Antimicrobial Agents and Chemotherapy 2000, 44, 1181-1185), except that purified penicillin-binding protein 1b (PBP 1b; 5 pM), carrying ^3H-labeled moenomycin at the glycosyltransferase site, was used in the present example instead of [3H]benzylpenicillin. ^3H-Moenomycin was obtained from moenomycin A (Kurz et al., Eur. J. Biochem., 1998, 252, 500-507) by hydrogenating it with ^3H2:
6 mg of moenomycin, dissolved in 300 μL methanol, were added to a 1 cm^3 flask, after which 2 mg of palladium-charcoal (Degussa Type E10N/D) were added. The flask was then gassed, while excluding air, with 1 cm^3 3H2; and the reaction solution was left to hydrogenate for 15 minutes. After the reaction had come to an end, the catalyst was filtered off from the reaction mixture, which was diluted to 100 mL with ethanol. This solution can be used directly for preparing the glycosyltransferase/^3H-moenomycin complex. Total radioactivity of the reaction product: 6.56 GBq (177 mCi); specific activity: 1.9 TBq/mmol. The radioactive complex was attached to SPA PVT Copper His-Tag beads. The radioactive moenomycin that was displaced by the inhibitors was measured. • SPA PVT Copper His-Tag beads: Amersham RPN 0095; • PBS: GIBCO BRL 14200-067; • BSA: Calbiochem 12657; • NOG: SIGMA O-8001 (n-octyl β-D-glucopyranoside); • Tween 20: Acros 23336-067; • Microtiter plates: Greiner Labortechnik.
The determination was carried out in microtiter plates. 10 μL of the test solution were added to the microtiter plates, followed by 10 μL of ^3H-moenomycin (25 nM, 3.1 kBq/well) and 40 μL of SPA beads loaded with PBP 1b (100 μg of beads, 45 nM enzyme). The plates were sealed and left to stand at room temperature for 8 hours. After that, the beads were separated off from the test solution by centrifuging for 3 minutes at 1300 rpm. The distribution of the radioactivity was measured in a WALLAC MicroBeta® 1450 Counter.
The inhibitory values were calculated in accordance with the formula: [1−(cpmsample−cpmlow ctr)/(cpmhigh ctr−cpmlow ctr)]×100(%).

[2] = stability (description of the substance); format: physicochemical; settings: for stability in solution depending on pH: neutral, mildly acidic, strongly acidic, strongly alkaline media
[3] = solubility (description of the substance); format: physicochemical; settings: for solubility in organic solvents: medium-polar and polar organic solvents
[4] = cited from earlier work
Bacillus subtilis = settings: against Bacillus subtilis; cited from earlier work

Sequence of glycosyltransferase (PBP 1b) (P02919 whole entry): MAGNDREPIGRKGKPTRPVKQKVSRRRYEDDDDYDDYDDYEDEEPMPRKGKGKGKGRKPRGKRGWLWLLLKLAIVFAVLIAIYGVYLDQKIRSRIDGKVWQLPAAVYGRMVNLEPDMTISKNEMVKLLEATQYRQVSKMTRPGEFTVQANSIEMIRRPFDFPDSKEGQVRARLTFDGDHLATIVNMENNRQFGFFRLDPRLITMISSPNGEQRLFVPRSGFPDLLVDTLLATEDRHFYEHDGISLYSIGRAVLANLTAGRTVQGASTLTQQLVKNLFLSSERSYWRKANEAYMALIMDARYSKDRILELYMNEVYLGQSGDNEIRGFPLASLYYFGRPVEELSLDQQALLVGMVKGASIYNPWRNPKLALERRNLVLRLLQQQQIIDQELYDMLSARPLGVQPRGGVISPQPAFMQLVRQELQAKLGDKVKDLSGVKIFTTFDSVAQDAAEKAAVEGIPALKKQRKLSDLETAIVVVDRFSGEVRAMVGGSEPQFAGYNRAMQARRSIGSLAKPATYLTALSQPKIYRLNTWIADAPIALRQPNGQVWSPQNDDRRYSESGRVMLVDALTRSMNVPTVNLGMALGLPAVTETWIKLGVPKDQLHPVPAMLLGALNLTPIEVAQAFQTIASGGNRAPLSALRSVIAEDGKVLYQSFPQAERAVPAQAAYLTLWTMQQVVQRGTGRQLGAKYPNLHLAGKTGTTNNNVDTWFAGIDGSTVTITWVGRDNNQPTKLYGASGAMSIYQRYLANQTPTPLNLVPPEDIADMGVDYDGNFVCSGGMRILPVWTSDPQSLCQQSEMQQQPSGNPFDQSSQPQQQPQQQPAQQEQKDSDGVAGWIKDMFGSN

Row | Compound | IC50 [1] [µM] | sensitivity to light and air [2] | stability in solution depending on pH [2] | solubility in organic solvents [3] | solubility in water [3] | absorption from the gastrointestinal tract [4] | antibiotic effect (Bacillus subtilis)
1 | O=C(O)/C=C/C=C/C=C\c1ccccc1/C=C/C=C/C(=O)O [serpentemycin B] | 0.1 | sensitive to light and air | stable in neutral and mildly acidic media, but unstable in strongly acidic and strongly alkaline solution | soluble in medium-polar and polar organic solvents | not particularly soluble in water |  | 
2 | CC(O)C(O)/C=C/C=C/C=C/c1ccccc1/C=C/C=C/C(=O)O (stereo not drawn) [serpentemycin D] | 19 | sensitive to light and air | stable in neutral and mildly acidic media but unstable in strongly acidic and strongly alkaline solution | soluble in medium-polar and polar organic solvents | not particularly soluble in water |  | 
3 | moenomycin |  |  |  |  |  | not absorbed from the gastrointestinal tract | 
4 | O=C(O)/C=C/C=C\C=C\C=C/c1ccccc1/C=C/C=C/C(=O)O [serpentemycin A] | 0.2 | sensitive to light and air | stable in neutral and mildly acidic media but unstable in strongly acidic and strongly alkaline solution | soluble in medium-polar and polar organic solvents | not particularly soluble in water |  | 
5 | C/C=C/C=C\C=C\C=C/c1ccccc1/C=C/C=C/C(=O)O [serpentene, reference compound] | 18 |  |  |  |  |  | weak antibiotic effect

— US7259276B2, “Polyenecarboxylic acid derivatives, processes for preparing them, and their use” (Sanofi-Aventis Deutschland GmbH, priority 2002, dated 2007)
